According to patent US20080318938A1, “METHODS FOR TREATING ABERRANT CELL PROLIFERATION DISORDERS” (priority 2007, published 2008):

Experiments:
Assay in all cases: Inhibition of cell proliferation (MTT)
Assay type in all cases: cell-based
BT-549 = details: Homo sapiens; BT-549, Breast; 48 hours
Protocol: (§1) Inhibition of cell proliferation is determined in human tumor cell lines. Innoculation density and doubling times for specific cell lines are listed at World Wide Web URL “dtp.nci.nih.gov/docs/misc/common_files/cell_list.html.”
(§2) • 1. Plate adherent cells the day before starting the experiment in 180 μl growth media (see list hereafter). • 2. Day of experiment, count and plate suspension cells in 180 μl growth media (see list on next page). • 3. Make 10× Compound, vehicle, and chemotherapeutic cocktail • a. Compound (1× to 10×) • i. 10 μM Compound to 100 μM • ii. 3 μM Compound to 30 μM • iii. 1 μM Compound to 10 μM • iv. 0.3 μM Compound to 3 μM • v. 0.1 μM Compound to 1 μM • b. Vehicle • i. PBS, equivalent to the volume used for 10 μM Compound (1× is ˜0.06% PBS) • c. Chemotherapeutic cocktail (1× to 10×): • i. 1 μM Velcade to 10 μM • ii. 100 μM Etoposide to 1 mM • iii. 20 μM Taxol to 200 μM • 4. Add 20 μl of the 10× compound/vehicle/chemotherapeutic cocktail to cells. • 5. Incubate at 37° C., 5% CO2 for 48 hours. • 6. Aspirate media. For suspension cells, spin plate at 1500 RPM for 10 minutes. Use a multichannel pipettor to slowly remove media. • 7. Add 200 μl of Thiazolyl Blue Tetrazolium Bromide (MTT) to each well: 0.863 mg/ml MTT in growth media.
(§3) Proliferation of several cancer cells was inhibited by compound TA1-1B (which is a particular mixture of the isomers represented by TA1-1A), as shown in the following table (Table 1). The value EC50 is the amount of Compound TA1-1B that results in 50% inhibition of proliferation of the indicated cell type.

D1-1 = details: Homo sapiens; D1-1, Leukemia; 48 hours
Protocol: as §1, §2, §3

Daudi = details: Homo sapiens, Lymphoma, 48 hours
Protocol: as §1, §2, §3

GDM-1 = details: Homo sapiens; GDM-1, Leukemia; 48 hours
Protocol: as §1, §2, §3

HCT-15 = details: Homo sapiens; HCT-15, Colon; 48 hours
Protocol: as §1, §2, §3

HH = details: Homo sapiens, Lymphoma, 48 hours
Protocol: as §1, §2, §3

HL-60(TB) = details: Homo sapiens, Leukemia, 48 hours
Protocol: as §1, §2, §3

Hut78 = details: Homo sapiens; Hut78, Lymphoma; 48 hours
Protocol: as §1, §2, §3

I 9.2 = details: Homo sapiens; I 9.2, Leukemia; 48 hours
Protocol: as §1, §2, §3

KG-1 = details: Homo sapiens; KG-1, Leukemia; 48 hours
Protocol: as §1, §2, §3

KM12 = details: Homo sapiens; KM12, Colon; 48 hours
Protocol: as §1, §2, §3

Karpas299 = details: Homo sapiens, KARPAS-299; Karpas299, Lymphoma; 48 hours
Protocol: as §1, §2, §3

Ku-812 = details: Homo sapiens, KU812; Ku-812, Leukemia; 48 hours
Protocol: as §1, §2, §3

MALME-3M = details: Homo sapiens, Melanoma, 48 hours
Protocol: as §1, §2, §3

MOLT-4 = details: Homo sapiens; MOLT-4, Leukemia; 48 hours
Protocol: as §1, §2, §3

MV-4-11 = details: Homo sapiens, MV4-11; MV-4-11, Leukemia; 48 hours
Protocol: as §1, §2, §3

NCI-H460 = details: Homo sapiens; NCI-H460, Non Small Cell Lung; 48 hours
Protocol: as §1, §2, §3

NCI-H522 = details: Homo sapiens; NCI-H522, Non Small Cell Lung; 48 hours
Protocol: as §1, §2, §3

NCI/ADR-RES = details: Homo sapiens, Breast, 48 hours
Protocol: as §1, §2, §3

OVCAR-5 = details: Homo sapiens; OVCAR-5, Ovarian; 48 hours
Protocol: as §1, §2, §3

RPMI-6666 = details: Homo sapiens; RPMI-6666, Lymphoma; 48 hours
Protocol: as §1, §2, §3

RS1184 = details: Homo sapiens; RS1184, Lymphoma; 48 hours
Protocol: as §1, §2, §3

Raji = details: Homo sapiens, Lymphoma, 48 hours
Protocol: as §1, §2, §3

Reh = details: Homo sapiens, Leukemia, 48 hours
Protocol: as §1, §2, §3

SF-268 = details: Homo sapiens; SF-268, CNS; 48 hours
Protocol: as §1, §2, §3

SF-295 = details: Homo sapiens; SF-295, CNS; 48 hours
Protocol: as §1, §2, §3

SF-539 = details: Homo sapiens; SF-539, CNS; 48 hours
Protocol: as §1, §2, §3

SNB-75 = details: Homo sapiens; SNB-75, CNS; 48 hours
Protocol: as §1, §2, §3

ST486 = details: Homo sapiens; ST486, Lymphoma; 48 hours
Protocol: as §1, §2, §3

TK-10 = details: Homo sapiens; TK-10, Renal; 48 hours
Protocol: as §1, §2, §3

UACC-257 = details: Homo sapiens; UACC-257, Melanoma; 48 hours
Protocol: as §1, §2, §3

SMILES: CN1CCC[C@H]1CCNC(=O)c1cn2c3c(c(N4CCC(c5cnccn5)C4)c(F)cc3c1=O)Oc1cc3ccccc3cc1-2 (stereo partly shown) [TA1-1B]
- EC50 (BT-549): 1800 nM
- EC50 (D1-1): 4160 nM
- EC50 (Daudi): 1290 nM
- EC50 (GDM-1): 1260 nM
- EC50 (HCT-15): 1510 nM
- EC50 (HH): 4040 nM
- EC50 (HL-60(TB)): 1650 nM
- EC50 (Hut78): 3300 nM
- EC50 (I 9.2): 3690 nM
- EC50 (KG-1): 3970 nM
- EC50 (KM12): 3060 nM
- EC50 (Karpas299): 3920 nM
- EC50 (Ku-812): 4190 nM
- EC50 (MALME-3M): 5090 nM
- EC50 (MOLT-4): 1210 nM
- EC50 (MV-4-11): 5810 nM
- EC50 (NCI-H460): 4010 nM
- EC50 (NCI-H522): 1500 nM
- EC50 (NCI/ADR-RES): 1620 nM
- EC50 (OVCAR-5): 2170 nM
- EC50 (RPMI-6666): 1590 nM
- EC50 (RS1184): 3250 nM
- EC50 (Raji): 1880 nM
- EC50 (Reh): 1320 nM
- EC50 (SF-268): 1230 nM
- EC50 (SF-295): 4270 nM
- EC50 (SF-539): 1110 nM
- EC50 (SNB-75): 2310 nM
- EC50 (ST486): 1280 nM
- EC50 (TK-10): 3330 nM
- EC50 (UACC-257): 5100 nM
